Measurements reported in US8716478B2, “Boron-containing small molecules” (Anacor Pharmaceuticals, Inc., priority 2010, dated 2014).

How the values were obtained:
[1] = tested on: Brugia malayi; test: Brugia malayi in vitro assay, adult female worms; settings: 50 uM
Experimental: Adult female worms are shipped from TRS Labs Inc. (Nonglak Supakorndej, Lab Director, 295 Research Dr., Athens, Ga. 30605; 706-549-0764) via Fed Ex. Individual worms are shipped in 2 mls vials with RPMI on Mondays and arrive at the […] Center lab on Tuesday mornings. Individual worms are poured into each well (24-well tissue culture plates) to avoid handling worms since they are very delicate and easily broken. Transport media is removed and replaced with 0.5 mls of RPMI-1640 (25 mM HEPES, 2 g/L NaHCO3, Antibiotic/Antimycotic, 5% HI FBS). Worms are maintained in a 37° C. 5% CO2 incubator. Compounds are added directly to each duplicate well (5 ul of 5 mM for a final concentration of 50 uM). DMSO (5 ul) is used as a negative control and Ivermectin (Sigma) is used as a positive control at 100 uM/well and 20 uM/well. Adult filarial nematodes can shed/give birth to microfilarial worms (mf) during the course of the assay. Wells were reviewed for the presence of mf, and the viability of mf, by visual observation of the well on the last day of observation (Day 7). Plates are examined once a day for 4-7 days. […] If changes are observed, worms are more closely examined under a dissecting microscope.

[2] = tested on: TNF-α; test: In vivo TNF-α release in LPS treated mice; design: species or system Swiss Webster mice
[3] = tested on: human PDE4 enzyme; test: Phosphodiesterase 4 (PDE4) inhibition, semi-purified enzyme from human U937 cells; format: biochemical; settings: 1 μM cAMP, 20 minutes at 25° C.; read-out: PDE4 IC50
[4] = tested on: TNF-α in peripheral blood mononuclear cells (PBMCs); test: TNF-α inhibition in LPS-stimulated peripheral blood mononuclear cells; format: cell-based; settings: PBMC; PBMCs, LPS 1 μg/mL for 24 h; read-out: Proinflammatory TNF-α IC50
Method in brief: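 Pooled human PBMCs (10-20 donors), 5×10^5 cells/well in RPMI with 10% FCS, <2% DMSO final, stimulated with LPS at 1 μg/mL for 24 h with compound. TNF-α in supernatant measured by cytometric bead array; IC50 by four-parameter logistic fit.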

[5] = Pharmacokinetics and oral bioavailability after IV and PO dosing; format: in vivo, female CD-1 mice; settings: plasma
Experimental: The objective of this study was to evaluate the pharmacokinetics and oral bioavailability of PDE4 inhibitors following intravenous (IV) administration and oral (PO) doses in female CD-1 mice.
After dosing, blood samples were collected through 24 h, twice from each animal at specific times (3 mice/time point), into microcentrifuge tubes containing K2EDTA (anticoagulant), stored on wet ice and processed for plasma. The plasma samples were analyzed for concentrations of parent compound by LC/MS/MS using an internal standard/peak area method. Pharmacokinetic analysis of the mean plasma concentration-time profiles following IV and PO administration was performed.
[…] Dosing solutions for intravenous administration were prepared in 55% PEG300/25% PG/20% water. Oral dosing used a suspension prepared in 1% CMC in water with 0.1% Tween 80.
After dosing, blood samples were collected through 24 h, twice from each animal via retro-orbital bleed (˜0.1 mL, 1st time point) or cardiac puncture (˜0.6 mL, 2nd time point) at specific times (3 mice/time point), into microcentrifuge tubes containing K2EDTA (anticoagulant) and stored on wet ice prior to processing.
Plasma was prepared by centrifugation of blood samples for 6 min at approximately 2000×g or 6000 rpm at 4° C. All processed plasma samples (˜50 μL and 300 μL) were transferred to analysis tubes, placed on dry ice immediately and later stored at −80° C. until analysis for concentrations of experimental compound by LC/MS/MS.
Mouse IV clearance, Mouse Oral AUC and Oral Bioavailability are provided below. 6-(1-Hydroxy-1,3-dihydrobenzo[c][1,2]oxaborol-5-yloxy)-2-(2-isopropoxyethoxy)nicotinonitrile (D140) and 6-(1-hydroxy-1,3-dihydrobenzo[c][1,2]oxaborol-5-yloxy)-2-(4-oxopentyloxy)nicotinonitrile (D141) are disclosed in U.S. patent application Ser. No. 12/399,015, filed Mar. 5, 2009.

Compound | worm activity score / phenotype, Day 3 ([1]; trial two) | % Inhibition of TNFa Blood Levels in LPS Treated Mice ([2]; Oral Dose 0.03 mg/kg) | % Inhibition of TNFa Blood Levels in LPS Treated Mice ([2]; Oral Dose 0.1 mg/kg) | % Inhibition of TNFa Blood Levels in LPS Treated Mice ([2]; Oral Dose 0.3 mg/kg) | % Inhibition of TNFa Blood Levels in LPS Treated Mice ([2]; Oral Dose 1 mg/kg) | % Inhibition of TNFa Blood Levels in LPS Treated Mice ([2]; Oral Dose 1.5 mg/kg) | % Inhibition of TNFa Blood Levels in LPS Treated Mice ([2]; Oral Dose 3 mg/kg) | % Inhibition of TNFa Blood Levels in LPS Treated Mice ([2]; Oral Dose 5 mg/kg) | % Inhibition of TNFa Blood Levels in LPS Treated Mice ([2]; Oral Dose 10 mg/kg) | % Inhibition of TNFa Blood Levels in LPS Treated Mice ([2]; Oral Dose 15 mg/kg) | % Inhibition of TNFa Blood Levels in LPS Treated Mice ([2]; Oral Dose 30 mg/kg) | IC50 [3] | IC50 [4] | bioavailability ([5]; female, CD-1, mouse, po) | AUC ([5]; female, CD-1, mouse, 10 mg/kg oral suspension dose) | clearance ([5]; mouse, 5 mg/kg, female CD-1 mice, intravenous) | worm activity score / phenotype, Day 3 ([1]; trial one)
CC(C)OCCOc1nc(Oc2ccc3c(c2)COB3O)ccc1C#N [6-(1-hydroxy-1,3-dihydrobenzo[c][1,2]oxaborol-5-yloxy)-2-(4-isopropoxy-ethoxy)nicotinonitrile] | 4 (highly active (controls)) |  |  |  |  |  |  |  |  |  |  |  |  |  |  |  | 
CC(=O)CCCOc1nc(Oc2ccc3c(c2)COB3O)c(Cl)cc1C#N [Compound D231, 5-Chloro-6-(1-hydroxy-1,3-dihydrobenzo[c][1,2]oxaborol-5-yloxy)-2-(4-oxopentyloxy)nicotinonitrile] | 2 to 3 | 0% | 22% | 33.6% | 69.5% | 58% | 75.6% | 85.5% | 85.6% | 81.3% | 97.3% | 0.8 nM | 0.44 nM | 96% | 8500 ng·h/mL | 25 mL/min/kg | 2 to 3
